The record followed here is patent US12358910B2, “Heteroaromatic compounds as Vanin inhibitors” (Boehringer Ingelheim International GmbH, priority 2018, dated 2025).

Each structure is given as a SMILES string.

Experiment [1] has as its target T1, FLAG-tagged Vanin-1 (AA 22-493, T26I) (Homo sapiens, UniProt O95497, T26I).
T1 construct: FLAG-tagged Vanin-1 (AA 22-493, T26I, produced internally); FLAG; made in house
T1 sequence (O95497 22-493 T26I): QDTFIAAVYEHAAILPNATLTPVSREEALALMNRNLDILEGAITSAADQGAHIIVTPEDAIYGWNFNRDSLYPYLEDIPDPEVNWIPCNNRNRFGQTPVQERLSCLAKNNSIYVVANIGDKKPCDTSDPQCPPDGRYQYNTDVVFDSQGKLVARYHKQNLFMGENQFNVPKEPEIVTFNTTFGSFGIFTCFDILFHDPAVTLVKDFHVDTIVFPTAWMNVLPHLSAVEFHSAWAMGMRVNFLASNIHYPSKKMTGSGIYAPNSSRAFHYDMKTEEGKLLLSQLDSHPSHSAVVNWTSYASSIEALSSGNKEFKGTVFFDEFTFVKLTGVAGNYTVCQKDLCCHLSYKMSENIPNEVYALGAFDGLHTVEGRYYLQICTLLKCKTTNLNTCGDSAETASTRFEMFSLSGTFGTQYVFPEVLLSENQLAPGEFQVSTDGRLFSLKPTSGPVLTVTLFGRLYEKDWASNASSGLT
Put plainly: Vanin-1 enzymatic assay (pantothenic acid formation, RapidFire mass spectrometry). It counts as biochemical. The following applies: 0.1 nM FLAG-tagged Vanin-1, 3 μM D-pantethine, room temperature; geometric mean in case of multiple measurements; read-out: VNN-1 IC50. Here is the method: Description of Biological Properties Vanin-1 Enzymatic Assay:
The test compounds are dissolved in 100% DMSO at a concentration of 10 mM and in a first step diluted in DMSO to a concentration of 5 mM, followed by serial dilution steps in 100% DMSO. Dilution factor and number of dilution steps may vary according to needs. Typically 8 different concentrations by 1:5 dilutions are prepared, a further intermediate dilutions of the substances is carried out with assay buffer resulting in 1% final DMSO concentration in the assay.
0.1 nM of FLAG-tagged Vanin-1 (AA 22-493, T26I, produced internally) and test compounds are incubated at room temperature for 20 minutes in assay buffer (1 mM DTT, 0.0025% Brij-35, 50 mM HEPES, pH7.5). D-Pantethine (Sigma, Cat #P2125-5G) in assay buffer is added (final concentration 3 μM) and incubated for additional 30 minutes at room temperature. Total assay volume typically is 40 μl but might be adjusted according to needs. Reaction is stopped by adding equal volume of stop solution as the reaction mixture to reach 100 nM HD-pantothenic acid (as an internal standard) and 1% TFA. Assay plates are centrifuged for 2 minutes and the formation of pantothenic acid is detected by RapidFire Mass Spectrometry (mobile phase A: 0.1% formic acid and 0.01% trifluoroacetic acid in water; mobile phase B: 47.5% acetonitrile, 47.5% methanol, 0.1% formic acid and 0.01% trifluoroacetic acid in water) using a C18, 12 μL cartridge (Agilent Cat #G9205A).
The values given in Table I result from measurements of one or more samples. In case of multiple measurements the geometric mean values are given.

The next experiment has as its system Pantetheinase (vanin). Put plainly: Human Whole Blood assay (vanin activity by pantothenic acid formation). The experiment is classed as cell-based. The following applies: pantethine substrate, 5 min reaction at room temperature, geometric mean in case of multiple measurements, read-out: HWB IC50. Here is the method: Human Whole Blood assay: Pantetheinase (vanin) converts panteheine into pantothenic acid and cysteamine. Accordingly, in the described protocol vanin activity is quantified by formation of pantothenic acid after pantetheine supplementation via pantethine. The assay is applicable to identify vanin inhibitors. Compound stocks are dissolved in DMSO at 10 mM. Further dilutions are performed in RPMI 1640 medium (Gibco, #A-10491-01) and final concentrations in the assay are 0.032 nM-500 nM.
Human blood is drawn into a blood bag (1% heparin, 50 I.E./mL). Blood is aliquoted into cavities of 96-deep-well plates at 290 μL and mixed with 10 μL compound solution or vehicle (30 sec at 1400 rpm on a shaker). Equilibration follows at room temperature, 250 rpm and for 30 min. The assay is started by adding 10 μL of substrate solution (2 μM pantethine in 1 mM DTT, 0.0025% Brij-35, 50 mM HEPES, pH7.5) to each well, except for some blank wells which receive […] substrate buffer (1 mM DTT, 0.0025% Brij-35, 50 mM HEPES, pH7.5) only. Samples are thoroughly shaken (30 sec, 1400 rpm) and reaction is allowed to take place at room temperature, 250 rpm and for 5 min. The reaction is stopped by addition of a vanin tool inhibitor in excess (BI-1 total conc. 10 μM). Centrifugation of the plate follows at 4° C., 665 G for 10 min. Then the blood plasma samples (100 μL) are transferred into another 96-deep-well plate and proteins are precipitated (5 min on ice) by adding 100 μL of ice cold precipitation solution (1 μM labelled pantothenic acid (di-β-alanine-13C6,15N2 calcium salt, Sigma, #705837) in acetonitrile).
Afterwards the plate is centrifuged (4° C., 3220 G, 10 min) and supernatants (50 μL) are collected into another 96-deep-well plate and mixed (10 sec, 1400 rpm) with 150 μL ice cold formic acid (0.1%, Carl Roth GmbH+Co.KG, #CP03.1). The formation of pantothenic acid is detected by RapidFire Mass Spectrometry. A TripleQuad 6500+(ABSciex, Germany) is equipped with an LC-1290 system, a RapidFire autosampler (Agilent, Germany) and a C18 cartridge Type C 12 μL (Agilent Cat #G9526-80000). Mobile phase A is consisting of 0.09% formic acid and 0.01% trifluoroacetic acid in water and mobile phase B of 0.09% formic acid and 0.01% trifluoroacetic acid in acetonitrile/methanol/water=47.5/47.5/5.

`O=C(c1ccc(NCc2cnc3ccccn23)nc1)N1CC[C@H](N2CCOC2=O)C1` [Example 1.1, 3-[(3S)-1-{6-[({Imidazo[1,2-a]pyridin-3-yl}methyl)amino]pyridine-3-carbonyl}pyrrolidin-3-yl]-1,3-oxazolidin-2-one]: the IC50 in experiment [1] turned out to be 0.24 nM; in the experiment on Pantetheinase (vanin), 3.49 nM.

Consider `C[C@H](Nc1ccc(C(=O)N2CC[C@H](N(C)C(=O)C3CC3)C2)cn1)c1cnc2[nH]ccc2c1` [Example 1.2], for which the IC50 came to 0.09 nM in experiment [1] and 1.94 nM with Pantetheinase (vanin).

For the molecule `C[C@H](Nc1ccc(C(=O)N2CC[C@H](N(C)C(=O)C3(C#N)CC3)C2)cn1)c1cnc2[nH]ccc2c1` [Example 1.3], the IC50 was found to be 0.1 nM in experiment [1] and 3.05 nM in the experiment with Pantetheinase (vanin).

Regarding `C[C@H](Nc1ccc(C(=O)N2CC[C@H](N(C)C(=O)C3CCC3)C2)cn1)c1cnc2[nH]ccc2c1` [Example 1.4], the IC50 was 0.1 nM in experiment [1] and 2.07 nM with Pantetheinase (vanin).

For the molecule `C[C@H](Nc1ccc(C(=O)N2CC[C@H](N(C)C(=O)C3CCC3)C2)cn1)c1cnc2[nH]ccc2c1` [Example 1.5], the IC50 came to 0.11 nM in experiment [1] and 1.58 nM in the experiment with Pantetheinase (vanin).

As to `C[C@H](Nc1ccc(C(=O)N2CC[C@H](N(C)C(=O)C3CC(F)(F)C3)C2)cn1)c1cnc2[nH]ccc2c1` [Example 1.6], the IC50 in experiment [1] was 0.12 nM; in the experiment with Pantetheinase (vanin), 6.38 nM.

As for `C[C@H](Nc1ccc(C(=O)N2CC[C@H](N(C)C(=O)C3(C#N)CC3)C2)cn1)c1cnc2[nH]ccc2c1` [Example 1.7], the IC50 in experiment [1] is 0.13 nM; in the experiment with Pantetheinase (vanin) it was 1.7 nM.

Take `C[C@H](Nc1ccc(C(=O)N2CC[C@H](N(C)C(=O)C3CC(F)(F)C3)C2)cn1)c1cnc2[nH]ccc2c1` [Example 1.10]: the IC50 in experiment [1] was 0.16 nM; with Pantetheinase (vanin), 2.78 nM.

Regarding `CN(C(=O)C1CC(F)(F)C1)[C@H]1CCN(C(=O)c2ccc(NCc3cnc4ccccn34)nc2)C1` [Example 1.12], the results for the IC50 (in experiment [1]; with Pantetheinase (vanin)) were 0.1 nM and 1.48 nM, respectively.

For `CN(C(=O)C1(C#N)CC1)[C@H]1CCN(C(=O)c2ccc(NCc3cnc4ccccn34)nc2)C1` [Example 1.13], the IC50 in experiment [1] came to 0.15 nM; with Pantetheinase (vanin) it was 3.03 nM.

Take `CN(C(=O)C1(C)CCC1)[C@H]1CCN(C(=O)c2ccc(NCc3cnc4ccccn34)nc2)C1` [Example 1.14]: the IC50 in experiment [1] was determined as 0.18 nM; with Pantetheinase (vanin), 2.59 nM.

Regarding `O=C(c1ccc(NCc2cnc3ccccn23)nc1)N1CC[C@H](N2CCCC2=O)C1` [Example 1.15], the IC50 in experiment [1] was found to be 0.19 nM; in the experiment with Pantetheinase (vanin), 4.82 nM.

Consider `CN(C(=O)C1CC1)[C@H]1CCN(C(=O)c2ccc(NCc3cnc4ccccn34)nc2)C1` [Example 1.16], for which the IC50 worked out at 0.2 nM in experiment [1] and 2.78 nM in the experiment on Pantetheinase (vanin).

For `CC1(C#N)CCN(C(=O)c2ccc(NCc3ncn4ccccc34)nc2)C1` (centres unmarked) [Example 1.17], the IC50 in experiment [1] came to 0.83 nM; with Pantetheinase (vanin), 10.4 nM.

For the molecule `CC1(C#N)CCN(C(=O)c2ccc(NCc3cnc4ccccn34)nc2)C1` (centres unmarked) [Example 1.18], the IC50 in experiment [1] was found to be 0.41 nM; in the experiment with Pantetheinase (vanin), 3.67 nM.

For `CC1(C#N)CCN(C(=O)c2ccc(NCc3ccnc4[nH]ccc34)nc2)C1` (centres unmarked) [Example 1.19], the figures for the IC50 (in experiment [1]; in the experiment on Pantetheinase (vanin)) were 0.3 nM and 3.78 nM, respectively.

For the molecule `CC(=O)N(C)[C@H]1CCN(C(=O)c2ccc(NCc3n[nH]c4ccc(Cl)cc34)nc2)C1` [Example 2.1, N-[1(3S)-1-(6-{1[(5-Chloro-1H-indazol-3-yl)methyl]amino}pyridine-3-carbonyl)pyrrolidin-3-yl]-N-methylacetamide], the IC50 in experiment [1] turned out to be 0.23 nM; with Pantetheinase (vanin) it was 5.03 nM.

`CC(=O)N(C)[C@H]1CCN(C(=O)c2ccc(NCc3cnc4ccsc4c3)nc2)C1` [Example 2.4]: the values for the IC50 (in experiment [1]; with Pantetheinase (vanin)) were 0.29 nM and 1.39 nM, respectively.

As for `CC(=O)N(C)[C@H]1CCN(C(=O)c2ccc(NCc3csc4ccccc34)nc2)C1` [Example 3.1, N-[(3S)-1-(6-{1[(1-Benzothiophen-3-yl)methyl]amino}pyridine-3-carbonyl)pyrrolidin-3-yl]-N-methylacetamide], the concentration for half-maximal inhibition (IC50) came to 0.41 nM in experiment [1] and 7.21 nM in the experiment with Pantetheinase (vanin).

For `CN(C(=O)C1CCC1)[C@H]1CCN(C(=O)c2ccc(NCc3cnc4ccccn34)nc2)C1` [Example 4.1, N-[(3S)-1-{6-[({Imidazo[1,2-a]pyridin-3-yl}methyl)amino]pyridine-3-carbonyl}pyrrolidin-3-yl]-N-methylcyclobutanecarboxamide], the concentration for half-maximal inhibition (IC50) turned out to be 0.1 nM in experiment [1] and 1.63 nM in the experiment with Pantetheinase (vanin).

On to `CC(=O)N(C)[C@H]1CCN(C(=O)c2ccc(NCc3cncc4ccsc34)nc2)C1` [Example 5.1, N-Methyl-N-[(3S)-1-{6-[({thieno[3,2-c]pyridin-7-yl}methyl)amino]pyridine-3-carbonyl}pyrrolidin-3-yl]acetamide], for which the IC50 in experiment [1] was determined as 0.04 nM; in the experiment with Pantetheinase (vanin) it was 1.17 nM.

As for `CC(=O)N(C)[C@H]1CCN(C(=O)c2ccc(N[C@@H](C)c3cccc4c3cnn4C)nc2)C1` [Example 5.2], the figures for the IC50 (in experiment [1]; in the experiment on Pantetheinase (vanin)) were 0.07 nM and 1.68 nM, respectively.

Consider `CC(=O)N(C)[C@H]1CCN(C(=O)c2ccc(NCc3cccc4[nH]ncc34)nc2)C1` [Example 5.3], for which the figures for the IC50 (in experiment [1]; in the experiment with Pantetheinase (vanin)) were 0.09 nM and 11.2 nM, respectively.

Turning to `CC(=O)N(C)[C@H]1CCN(C(=O)c2ccc(NCc3c(Cl)nc4sccn34)nc2)C1` [Example 5.4], the IC50 in experiment [1] was 0.12 nM; with Pantetheinase (vanin), 1.59 nM.

In the case of `CC(=O)N(C)[C@H]1CCN(C(=O)c2ccc(NCc3cccc4[nH]ccc34)nc2)C1` [Example 5.6], the IC50 was determined as 0.13 nM in experiment [1] and 2.1 nM in the experiment on Pantetheinase (vanin).

For the molecule `CC(=O)N(C)[C@H]1CCN(C(=O)c2ccc(NCc3ccc4nc[nH]c4c3)nc2)C1` [Example 5.7], the IC50 in experiment [1] was found to be 0.14 nM; in the experiment with Pantetheinase (vanin) it was 4.49 nM.

In the case of `CC(=O)N(C)[C@H]1CCN(C(=O)c2ccc(N[C@@H](C)c3ccc4[nH]ncc4c3)nc2)C1` [Example 5.8], the IC50 was 0.16 nM in experiment [1] and 1.71 nM with Pantetheinase (vanin).

As to `CN(C(=O)C1CCC1)[C@H]1CCN(C(=O)c2ccc(NCc3csc4ccccc34)nc2)C1` [Example 9.1, N-[(3S)-1-(6-{[(1-Benzothiophen-3-yl)methyl]amino}pyridine-3-carbonyl)pyrrolidin-3-yl]-N-methylcyclobutanecarboxamide], in experiment [1], the IC50 amounted to 0.26 nM.

On to `CC1(C#N)CCN(C(=O)c2ccc(NCc3csc4ccccc34)nc2)C1` (centres unmarked) [Example 9.2], for which the IC50 in experiment [1] was found to be 1.14 nM.
